Experiment [1] relates to emesis (retching and vomiting). The experiment in a line: emesis caused by opioid (morphine) and other proemetic agents (cisplatin) in ferrets. The format is in vivo. To be noted: i.p. pre-dosing, morphine 0.125 mg/kg s.c. or cisplatin 5 mg/kg i.p. The method, then: Male ferrets (0.9- 1.7 kg) obtained from Leeds University were housed in pairs at 22±1° C. and had free access to food (SDS Diet ‘C’ (E), Special Diet Services, UK) and water. They were housed under artificial lighting with lights on between 07:00 and 21:00 hours. For experimental use, animals were removed from their holding cages and placed individually into observation cages. The animals were allowed free access to water and food. The animals were divided into separate groups of 4 animals per group. Animals were frequently observed throughout the experiments by a trained technician to ensure that the animals remained in good health. In addition, animal behaviour was video recorded for subsequent analysis of emesis (see Rudd et al., 1994). Emesis was characterized by rhythmic abdominal contractions which were either associated with the oral expulsion of solid or liquid material from the gastrointestinal tract (i.e. vomiting) or not associated with the passage of material (i.e. retching movements). The number of highly distinctive abdominal contractions was counted. (+)-Nefopam was dissolved in saline and administered in a volume of 1 ml/kg. […] Observations were recorded over a 4 hr period post-morphine dosing and scored for incidences of retching and vomiting. […] Observations were recorded over the 72 hr period post-cisplatin dosing and scored for incidences of retching and vomiting.

A further experiment has as its system opiate receptors. The note with it: cited from earlier work.
For a further experiment, the system named is norepinephrine uptake. To be noted: order of potency (+)-nefopam > (±)-nefopam > (−)-nefopam; cited from earlier work.
In the next experiment the test system is dopamine uptake. The note with it: order of potency (+)-nefopam > (±)-nefopam > (−)-nefopam; cited from earlier work.
In another experiment the test system is serotonin-uptake. The note with it: order of potency (+)-nefopam > (±)-nefopam > (−)-nefopam; cited from earlier work.
For experiment [2] the following is noted: order of potency (+)-nefopam > (±)-nefopam > (−)-nefopam; cited from earlier work.

Turning to `CN1CCOC(c2ccccc2)c2ccccc2C1` (racemic) [nefopam], in experiment [1], the “effect on emesis caused by opioid and other recognised proemetic agents” value is “able to prevent or diminish emesis”. Also, the “antinociception in animal models of pain and in humans” value with opiate receptors (animal models of pain and humans) was “induce antinociception”. Moreover, in the experiment with opiate receptors (nalaxone), the “blockade of antinociception by nalaxone” value was “not blocked”.
`CN1CCO[C@@H](c2ccccc2)c2ccccc2C1` [(+)-nefopam]: the “norepinephrine uptake inhibitory properties, potency compared with (−)-nefopam” value with norepinephrine uptake is “more potent”. Moreover, the “dopamine uptake inhibitory properties, potency compared with (−)-nefopam” value with dopamine uptake is on record as “more potent”. In addition, in the experiment with serotonin-uptake, the “serotonin-uptake inhibitory properties, potency compared with (−)-nefopam” value is given as “more potent”. Besides, in experiment [2], the “analgesic properties, potency compared with (−)-nefopam” value is listed as “more potent”.
